From patent US6462040B1, “Cis-substituted aminocyclopropane derivative” (Daiicho Pharmaceutical Co., Ltd., priority 1996, dated 2002) come the findings set out here.

Values after ≈ are worked out from the molar mass of the structure shown.

Holding throughout (assay): Antimicrobial activity, MIC (standard method of the Japan Chemotherapeutic Society)
Common to all, as to type: cell-based

The subject of experiment [1] is S. flexneli, 2A 5503. The text has this:
(§1) The present invention will further be illustrated in greater detail by way of Examples and Reference Examples, but the present invention should not be construed as being limited thereto. The antimicrobial activity of the compounds prepared was examined in accordance with the standard method specified by the Japan Chemotherapeutic Society, and the results obtained were expressed in terms of minimum inhibitory concentration (MIC; μg/ml).

In experiment [2] the test system is Str. pyogenes, G-36.
Text: as §1

Experiment [3] deals with Ps. aeruginosa, 32121.
Text: as §1

Experiment [4] deals with Pr. vulgaris, 08601.
Text: as §1

The test system of experiment [5] is Pr. mirabilis, IFO-3849.
Text: as §1

For experiment [6], the system named is Str. faecalis, ATCC-19433.
Text: as §1

The subject of experiment [7] is Ps. maltophilia, IID-1275.
Text: as §1

For experiment [8], the system named is E. coli, NIHJ.
Text: as §1

For experiment [9], the system named is Ser. marcescens, 10100.
Text: as §1

Experiment [10] relates to Ps. aeruginosa, 32104.
Text: as §1

The test system of experiment [11] is S. epidermidis, 56500.
Text: as §1

Experiment [12] concerns S. aureus, 870307.
Text: as §1

The subject of experiment [13] is S. aureaus, 209P.
Text: as §1

In the case of `Cc1c(N2CCC([C@@H]3C[C@@H]3N)C2)c(F)c(N)c2c(=O)c(C(=O)O)cn([C@@H]3C[C@@H]3F)c12` (single isomer, unassigned; isomer b) [Example 3], the MIC entry in [1] was “≦0.003 μg/ml”; in experiment [2] it was 0.006 µg/mL (≈ 0.0143 µM); in [3], 0.10 µg/mL (≈ 0.239 µM); in experiment [4] it was 0.05 µg/mL (≈ 0.119 µM); in [5] it was 0.05 µg/mL (≈ 0.119 µM); in experiment [6], 0.025 µg/mL (≈ 0.0597 µM). The minimal inhibitory concentration (MIC) is 0.05 µg/mL (≈ 0.119 µM) in experiment [7]; “≦0.003 μg/ml” in [8]; 0.10 µg/mL (≈ 0.239 µM) in [9]; 0.20 µg/mL (≈ 0.478 µM) in [10]; 0.006 µg/mL (≈ 0.0143 µM) in experiment [11]; 0.025 µg/mL (≈ 0.0597 µM) in experiment [12]. The MIC result in experiment [13] is listed as “≦0.003 μg/ml”.

The MIC is the lowest concentration found to suppress growth. High values mean a need for much substance, low ones inhibition by little substance.
